The record followed here is US20250270209A1 (INTERLINE THERAPEUTICS, INC., priority 2022, published 2025).

For experiment [1], the target named is LRRK2 wild type enzyme (Homo sapiens, UniProt Q5S007). In words: Biochemical Assay: LRRK2 TR-FRET (LanthaScreen) kinase assay with LRRKtide substrate. The note with it: LRRK2 Inhibition, Table 8. The procedure, abridged:
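Human wild-type LRRK2 (3 nM) preincubated 15 min with compound (11-point, 3-fold, top 10 μM), then reacted 120 min at 23 °C with 400 nM LRRKtide and 25 μM ATP, pH 8.0. Stopped with EDTA; Tb-anti-pLRRKtide TR-FRET read after 30 min.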
In general terms: In TR-FRET formats the signal depends on donor and acceptor labels being close together.

For experiment [2], the target named is T1, wild type LRRK2 overexpressed in recombinant HEK-293T cells (Homo sapiens, UniProt Q5S007).
T1 construct: host or cells: HEK293T (transient transfection with pCMV-LRRK2 WT plasmid)
The experiment in a line: pS935 LRRK2 Cell Assay (HTRF, phospho-LRRK2 Ser935). The experiment is classed as cell-based. The following applies: LRRK2 Inhibition, Table 8, 2 hours compound incubation. The procedure, abridged:
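HEK-293T cells transiently transfected with wild-type LRRK2 for 24 h, plated overnight, then treated 2 h at 37° C with compound (top 10 μM, 3-fold, 9 doses, duplicates, 0.2% DMSO). Lysates probed overnight at 23° C by sandwich HTRF for pSer935; 665/615 nm ratio read.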

T1 sequence (Q5S007 whole entry): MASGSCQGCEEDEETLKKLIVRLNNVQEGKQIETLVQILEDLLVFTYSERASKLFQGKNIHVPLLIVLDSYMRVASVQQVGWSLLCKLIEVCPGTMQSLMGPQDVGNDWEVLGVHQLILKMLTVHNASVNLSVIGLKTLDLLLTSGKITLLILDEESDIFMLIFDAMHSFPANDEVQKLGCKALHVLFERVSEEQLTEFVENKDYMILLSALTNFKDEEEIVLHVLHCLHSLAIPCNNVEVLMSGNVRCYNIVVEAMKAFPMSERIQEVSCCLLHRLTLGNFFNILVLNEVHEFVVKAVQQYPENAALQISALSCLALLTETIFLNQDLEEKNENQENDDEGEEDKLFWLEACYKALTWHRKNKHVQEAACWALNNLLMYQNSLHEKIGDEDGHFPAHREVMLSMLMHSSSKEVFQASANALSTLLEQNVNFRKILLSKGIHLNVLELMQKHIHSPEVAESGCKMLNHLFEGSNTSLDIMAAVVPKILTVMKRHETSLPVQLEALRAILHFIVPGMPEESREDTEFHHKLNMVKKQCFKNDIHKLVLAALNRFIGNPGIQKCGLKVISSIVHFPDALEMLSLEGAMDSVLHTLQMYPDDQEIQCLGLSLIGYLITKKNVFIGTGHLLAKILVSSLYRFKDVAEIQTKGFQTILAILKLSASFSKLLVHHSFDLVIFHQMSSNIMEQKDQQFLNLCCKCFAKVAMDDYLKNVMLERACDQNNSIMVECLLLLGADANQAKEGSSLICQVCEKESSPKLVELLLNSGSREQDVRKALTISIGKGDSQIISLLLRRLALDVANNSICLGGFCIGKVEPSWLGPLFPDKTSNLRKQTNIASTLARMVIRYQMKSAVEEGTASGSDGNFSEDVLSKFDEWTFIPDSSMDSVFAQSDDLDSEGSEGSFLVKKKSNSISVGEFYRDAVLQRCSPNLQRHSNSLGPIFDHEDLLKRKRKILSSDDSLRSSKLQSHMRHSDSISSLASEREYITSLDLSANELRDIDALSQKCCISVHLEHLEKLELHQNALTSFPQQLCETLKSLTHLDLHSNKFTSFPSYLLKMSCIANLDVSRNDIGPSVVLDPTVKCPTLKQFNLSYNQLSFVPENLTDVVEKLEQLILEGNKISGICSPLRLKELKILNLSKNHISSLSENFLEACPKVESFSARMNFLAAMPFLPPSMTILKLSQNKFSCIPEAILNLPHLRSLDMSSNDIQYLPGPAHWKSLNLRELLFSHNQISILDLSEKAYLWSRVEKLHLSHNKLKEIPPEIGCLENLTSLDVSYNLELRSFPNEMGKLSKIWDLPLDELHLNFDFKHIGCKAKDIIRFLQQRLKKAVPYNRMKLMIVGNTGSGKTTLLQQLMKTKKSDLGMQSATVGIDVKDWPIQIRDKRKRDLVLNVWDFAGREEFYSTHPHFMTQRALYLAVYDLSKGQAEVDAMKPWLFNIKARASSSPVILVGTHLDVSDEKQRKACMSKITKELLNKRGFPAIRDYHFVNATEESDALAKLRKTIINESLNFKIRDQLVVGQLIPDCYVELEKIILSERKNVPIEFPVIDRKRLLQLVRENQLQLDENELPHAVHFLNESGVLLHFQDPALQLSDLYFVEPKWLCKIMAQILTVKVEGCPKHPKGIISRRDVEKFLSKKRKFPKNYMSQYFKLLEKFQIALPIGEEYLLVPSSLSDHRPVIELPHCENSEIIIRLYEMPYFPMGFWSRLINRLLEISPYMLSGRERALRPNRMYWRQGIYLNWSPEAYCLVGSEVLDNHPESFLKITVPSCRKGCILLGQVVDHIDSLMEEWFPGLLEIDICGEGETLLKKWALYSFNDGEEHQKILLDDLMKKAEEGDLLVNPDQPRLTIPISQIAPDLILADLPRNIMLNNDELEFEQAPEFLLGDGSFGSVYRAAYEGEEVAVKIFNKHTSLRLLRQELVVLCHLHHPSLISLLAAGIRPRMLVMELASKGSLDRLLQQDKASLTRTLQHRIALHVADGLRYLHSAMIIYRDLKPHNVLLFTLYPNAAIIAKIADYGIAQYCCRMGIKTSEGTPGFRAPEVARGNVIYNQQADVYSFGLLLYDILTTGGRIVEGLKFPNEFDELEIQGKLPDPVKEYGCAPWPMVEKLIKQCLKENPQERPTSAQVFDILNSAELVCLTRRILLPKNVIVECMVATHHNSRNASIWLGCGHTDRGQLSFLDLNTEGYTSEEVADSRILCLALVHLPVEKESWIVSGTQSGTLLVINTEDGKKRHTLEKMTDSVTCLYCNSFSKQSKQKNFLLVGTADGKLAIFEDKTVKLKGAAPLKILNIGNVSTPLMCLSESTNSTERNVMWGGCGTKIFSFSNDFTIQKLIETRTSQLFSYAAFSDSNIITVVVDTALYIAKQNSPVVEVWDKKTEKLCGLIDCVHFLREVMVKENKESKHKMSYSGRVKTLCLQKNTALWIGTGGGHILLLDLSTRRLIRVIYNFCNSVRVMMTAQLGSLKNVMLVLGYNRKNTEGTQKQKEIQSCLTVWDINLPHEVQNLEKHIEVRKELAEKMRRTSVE
Chain of LRRK2 wild type enzyme (Q5S007 whole entry): as above

Take `C[C@@H]1C[C@H](n2c(CC(=O)Nc3cnn(C)c(=O)c3)nc3cnc4ccc(Cl)cc4c32)CCO1` [Compound 206, N-(1-methyl-6-oxo-1,6-dihydro-4-pyridazinyl){3-[(2R,4R)-2-methyltetrahydro-2H-pyran-4-yl]-12-chloro-3,5,8-triazatricyclo[7.4.0.0^2,6]trideca-1,4,6,8,10,12-hexaen-4-yl}acetamide]: the IC50 came to 0.48 nM in experiment [1] and 8.37 nM in experiment [2].
Regarding `C[C@@H]1C[C@H](n2c(CC3CN(C(=O)OC(C)(C)C)C3)nc3cnc4ccc(C#N)cc4c32)CCO1` [Compound 73, tert-butyl 3-({8-cyano-1-[(2R,4R)-2-methyloxan-4-yl]-1H-imidazo[4,5-c]quinolin-2-yl}methyl)azetidine-1-carboxylate], the IC50 in experiment [1] was determined as 3.88 nM; in experiment [2] it was 251 nM.
For `C[C@@H]1C[C@H](n2c(CC(=O)NCC3CCO3)nc3cnc4ccc(C#N)cc4c32)CCO1` (stereo partly drawn) [Compound 149, 2-{8-cyano-1-[(2R,4R)-2-methyloxan-4-yl]-1H-imidazo[4,5-c]quinolin-2-yl}-N-[(oxetan-2-yl)methyl]acetamide], the IC50 in experiment [1] worked out at 0.715 nM; in experiment [2] it was 74.3 nM.
As to `C[C@@H]1C[C@H](n2c(CS(=O)(=O)NCC3CC3)nc3cnc4ccc(C#N)cc4c32)CCO1` [Compound 55, 1-{8-cyano-1-[(2R,4R)-2-methyloxan-4-yl]-1H-imidazo[4,5-c]quinolin-2-yl}-N-(cyclopropylmethyl)methanesulfonamide], the half-inhibitory concentration (IC50) stood at 2.3 nM in experiment [1] and 272 nM in experiment [2].
On to `C[C@@H]1C[C@H](n2c(CC(=O)NCC(C)(C)C#N)nc3cnc4ccc(C#N)cc4c32)CCO1` [Compound 239, N-(2-cyano-2-methylpropyl){3-[(2R,4R)-2-methyltetrahydro-2H-pyran-4-yl]-12-cyano-3,5,8-triazatricyclo[7.4.0.0^2,6]trideca-1(9),2(6),4,7,10,12-hexaen-4-yl}acetamide], for which the concentration for half-maximal inhibition (IC50) in experiment [1] is 1.32 nM; in experiment [2], 169 nM.
In the case of `Cc1nc(C)c(NC(=O)Cc2nc3cnc4ccc(Cl)cc4c3n2[C@@H]2CCO[C@H](C)C2)c(C)n1` [Compound 217, N-(2,4,6-trimethyl-5-pyrimidinyl){3-[(2R,4R)-2-methyltetrahydro-2H-pyran-4-yl]-12-chloro-3,5,8-triazatricyclo[7.4.0.0^2,6]trideca-1,4,6,8,10,12-hexaen-4-yl}acetamide], the results for the IC50 in experiment [1] and in experiment [2] were 0.294 nM and 5.53 nM, respectively.
For `C[C@@H]1C[C@H](n2c(CC(=O)NC3CC3)nc3cnc4ccc(C#N)cc4c32)CCO1` [Compound 5, 2-{8-cyano-1-[(2R,4R)-2-methyloxan-4-yl]-1H-imidazo[4,5-c]quinolin-2-yl}-N-cyclopropylacetamide], the IC50 in experiment [1] came out at 0.586 nM; in experiment [2], 35.6 nM.
In the case of `CO[C@H]1C[C@@H](NC(=O)Cc2nc3cnc4ccc(C#N)cc4c3n2[C@@H]2CCO[C@H](C)C2)C1` [Compound 301, N-[(1s,3s)-3-methoxycyclobutyl]{3-[(2R,4R)-2-methyltetrahydro-2H-pyran-4-yl]-12-cyano-3,5,8-triazatricyclo[7.4.0.0^2,6]trideca-1,4,6,8,10,12-hexaen-4-yl}acetamide], the IC50 in experiment [1] was 0.701 nM; in experiment [2], 41.3 nM.
As to `C[C@@H]1C[C@H](n2c([C@H]3CN(c4cnn(C)c4)C(=O)O3)nc3cnc4ccc(C#N)cc4c32)CCO1` [Compound 124, 2-[(5R)-3-(1-methyl-1H-pyrazol-4-yl)-2-oxo-1,3-oxazolidin-5-yl]-1-[(2R,4R)-2-methyloxan-4-yl]-1H-imidazo[4,5-c]quinoline-8-carbonitrile], the IC50 in experiment [1] came to 0.706 nM; in experiment [2], 50.9 nM.
For `C[C@@H]1C[C@H](n2c(CC(=O)NCCc3ccccn3)nc3cnc4ccc(C#N)cc4c32)CCO1` [Compound 366, N-[2-(2-pyridyl)ethyl]{3-[(2R,4R)-2-methyltetrahydro-2H-pyran-4-yl]-12-cyano-3,5,8-triazatricyclo[7.4.0.0^2,6]trideca-1,4,6,8,10,12-hexaen-4-yl}acetamide], the half-maximal inhibitory concentration (IC50) is 0.587 nM in experiment [1] and 28.4 nM in experiment [2].
The matching figures for `C[C@@H]1C[C@H](n2c(C3CC(=O)N([C@@H](C)C4CC4)C3)nc3cnc4ccc(C#N)cc4c32)CCO1` (stereo partly drawn) [Compound 35, 2-{1-[(1S)-1-cyclopropylethyl]-5-oxopyrrolidin-3-yl}-1-[(2R,4R)-2-methyloxan-4-yl]-1H-imidazo[4,5-c]quinoline-8-carbonitrile]: 2.98 nM and 179 nM.
The matching figures for `C[C@@H]1C[C@H](n2c([C@H]3CCN(C(=O)OC(C)(C)C)C3)nc3cnc4ccc(C#N)cc4c32)CCO1` [Compound 26, tert-butyl (3S)-3-{8-cyano-1-[(2R,4R)-2-methyloxan-4-yl]-1H-imidazo[4,5-c]quinolin-2-yl}pyrrolidine-1-carboxylate]: 5.26 nM and 452 nM.
Consider `C[C@@H]1C[C@H](n2c(C3CC(=O)N([C@@H]4CCCOC4)C3)nc3cnc4ccc(C#N)cc4c32)CCO1` (stereo partly drawn) [Compound 51, 1-[(2R,4R)-2-methyloxan-4-yl]-2-{1-[(3R)-oxan-3-yl]-5-oxopyrrolidin-3-yl}-1H-imidazo[4,5-c]quinoline-8-carbonitrile], for which the IC50 in experiment [1] is 3.03 nM; in experiment [2], 312 nM.
On to `Cc1ncnc(C)c1NC(=O)Cc1nc2cnc3ccc(C#N)cc3c2n1[C@@H]1CCO[C@H](C)C1` [Compound 260, N-(4,6-dimethyl-5-pyrimidinyl){3-[(2R,4R)-2-methyltetrahydro-2pyran-4-yl]-12-cyano-3,5,8-triazatricyclo[7.4.0.0^2,6]trideca-1,4,6,8,10,12-hexaen-4-yl}acetamide], for which the figures for the half-maximal inhibitory concentration (IC50) in experiment [1] and in experiment [2] were 0.395 nM and 30.4 nM, respectively.
`C[C@@H]1C[C@H](n2c(C3CC(=O)N([C@H]4CCOC4)C3)nc3cnc4ccc(C#N)cc4c32)CCO1` (stereo partly drawn) [Compound 45, 1-[(2R,4R)-2-methyloxan-4-yl]-2-{5-oxo-1-[(3S)-oxolan-3-yl]pyrrolidin-3-yl}-1H-imidazo[4,5-c]quinoline-8-carbonitrile]: the 50% inhibitory concentration (IC50) was found to be 3.24 nM in experiment [1] and 550 nM in experiment [2].
The matching figures for `C[C@@H]1C[C@H](n2c(C3CN(C(=O)C4CC4)C3)nc3cnc4ccc(C#N)cc4c32)CCO1` [Compound 68, 2-(1-cyclopropanecarbonylazetidin-3-yl)-1-[(2R,4R)-2-methyloxan-4-yl]-1H-imidazo[4,5-c]quinoline-8-carbonitrile]: 7.43 nM and 1140 nM.
As for `C[C@@H]1C[C@H](n2c(CC(=O)NC3CCC3)nc3cnc4ccc(Cl)cc4c32)CCO1` [Compound 332, N-cyclobutyl{3-[(2R,4R)-2-methyltetrahydro-2H-pyran-4-yl]-12-chloro-3,5,8-triazatricyclo[7.4.0.0^2,6]trideca-1(9),2(6),4,7,10,12-hexaen-4-yl}acetamide], the IC50 is 0.741 nM in experiment [1] and 10.9 nM in experiment [2].
With `C[C@@H]1C[C@H](n2c(C3CC(=O)N(Cc4cnn(C)c4)C3)nc3cnc4ccc(C#N)cc4c32)CCO1` (mixture of isomers) [Compound 58, 2-[(3RS)-1-[(1-methyl-1H-pyrazol-4-yl)methyl]-5-oxopyrrolidin-3-yl]-1-[(2R,4R)-2-methyloxan-4-yl]-1H-imidazo[4,5-c]quinoline-8-carbonitrile], the results for the IC50 in experiment [1] and in experiment [2] were 1.6 nM and 931 nM, respectively.

One may read the IC50 as the point on the concentration scale where inhibition reaches its midpoint.
